{
  "source": "ChEMBL document CHEMBL1201862",
  "about": "“PubChem BioAssay data set” (2004)",
  "test_in_all_cases": "DTP human tumour cell line panel, 48 h",
  "key": {"HCC 2998": {"test_system": "HCC 2998"}, "MDA-MB-231": {"test_system": "MDA-MB-231"}, "Malme-3M": {"test_system": "Malme-3M"}, "UACC-62": {"test_system": "UACC-62"}, "SK-MEL-28": {"test_system": "SK-MEL-28"}, "RPMI-8226": {"test_system": "RPMI-8226"}, "U-251": {"test_system": "U-251"}, "UO-31": {"test_system": "UO-31"}, "HOP-62": {"test_system": "HOP-62"}, "NCI/ADR-RES": {"test_system": "NCI/ADR-RES"}, "SN12C": {"test_system": "SN12C"}, "OVCAR-8": {"test_system": "OVCAR-8"}, "SK-MEL-5": {"test_system": "SK-MEL-5"}, "IGROV-1": {"test_system": "IGROV-1"}, "OVCAR-3": {"test_system": "OVCAR-3"}, "SR": {"test_system": "SR"}, "HOP-92": {"test_system": "HOP-92"}, "SF-539": {"test_system": "SF-539"}, "SF-295": {"test_system": "SF-295"}, "RXF 393": {"test_system": "RXF 393"}, "BT-549": {"test_system": "BT-549"}, "PC-3": {"test_system": "PC-3"}, "NCI-H522": {"test_system": "NCI-H522"}, "TK-10": {"test_system": "TK-10"}, "LOX IMVI": {"test_system": "LOX IMVI"}, "NCI-H23": {"test_system": "NCI-H23"}, "MDA-N": {"test_system": "MDA-N"}, "SW-620": {"test_system": "SW-620"}, "UACC-257": {"test_system": "UACC-257"}, "T47D": {"test_system": "T47D"}, "ACHN": {"test_system": "ACHN"}, "NCI-H226": {"test_system": "NCI-H226"}, "OVCAR-4": {"test_system": "OVCAR-4"}, "HCT-15": {"test_system": "HCT-15"}, "SK-OV-3": {"test_system": "SK-OV-3"}, "MDA-MB-435": {"test_system": "MDA-MB-435"}, "NCI-H460": {"test_system": "NCI-H460"}, "A549": {"test_system": "A549"}, "SNB-75": {"test_system": "SNB-75"}, "KM12": {"test_system": "KM12"}, "CAKI-1": {"test_system": "CAKI-1"}, "EKVX": {"test_system": "EKVX"}, "DU-145": {"test_system": "DU-145"}, "M14": {"test_system": "M14"}, "SNB-19": {"test_system": "SNB-19"}, "COLO 205": {"test_system": "COLO 205"}, "HCT-116": {"test_system": "HCT-116"}, "HT-29": {"test_system": "HT-29"}, "MOLT-4": {"test_system": "MOLT-4"}, "MCF7": {"test_system": "MCF7"}, "CCRF-CEM": {"test_system": "CCRF-CEM"}, "SK-MEL-2": {"test_system": "SK-MEL-2"}, "K562": {"test_system": "K562"}, "OVCAR-5": {"test_system": "OVCAR-5"}, "786-0": {"test_system": "786-0"}},
  "note": "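Method: 48-hour compound exposure of cells in 96-well plates, five concentrations, linear interpolation of endpoints. GI50 marks 50% less growth.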 Active and inactive are the calls of the source. Rule as the data show it: active = GI50 up to about 1.1 µM and inactive = higher.",
  "data": [
    {"smiles": "CCN(C(=S)N[C@@H](Cc1ccccc1)C(=O)N[C@@H](CC(C)C)C(=O)OC)c1ccccc1", "values": [
      {"measurement": "GI50", "setting": "HCC 2998", "result": "> 100 µM (inactive)"},
      {"measurement": "GI50", "setting": "MDA-MB-231", "result": "> 100 µM (inactive)"},
      {"measurement": "GI50", "setting": "Malme-3M", "result": "> 100 µM (inactive)"},
      {"measurement": "GI50", "setting": "UACC-62", "result": "> 100 µM (inactive)"},
      {"measurement": "GI50", "setting": "SK-MEL-28", "result": "> 100 µM (inactive)"},
      {"measurement": "GI50", "setting": "RPMI-8226", "result": "75.9 µM (inactive)"},
      {"measurement": "GI50", "setting": "U-251", "result": "50.7 µM (inactive)"},
      {"measurement": "GI50", "setting": "UO-31", "result": "> 100 µM (inactive)"},
      {"measurement": "GI50", "setting": "HOP-62", "result": "> 100 µM (inactive)"},
      {"measurement": "GI50", "setting": "NCI/ADR-RES", "result": "> 100 µM (inactive)"},
      {"measurement": "GI50", "setting": "SN12C", "result": "> 100 µM (inactive)"},
      {"measurement": "GI50", "setting": "OVCAR-8", "result": "> 100 µM (inactive)"},
      {"measurement": "GI50", "setting": "SK-MEL-5", "result": "> 100 µM (inactive)"},
      {"measurement": "GI50", "setting": "IGROV-1", "result": "50.4 µM (inactive)"},
      {"measurement": "GI50", "setting": "OVCAR-3", "result": "> 100 µM (inactive)"},
      {"measurement": "GI50", "setting": "SR", "result": "24 µM (inactive)"},
      {"measurement": "GI50", "setting": "HOP-92", "result": "> 100 µM (inactive)"},
      {"measurement": "GI50", "setting": "SF-539", "result": "> 100 µM (inactive)"},
      {"measurement": "GI50", "setting": "SF-295", "result": "> 100 µM (inactive)"},
      {"measurement": "GI50", "setting": "RXF 393", "result": "> 100 µM (inactive)"},
      {"measurement": "GI50", "setting": "BT-549", "result": "69 µM (inactive)"},
      {"measurement": "GI50", "setting": "PC-3", "result": "63.1 µM (inactive)"},
      {"measurement": "GI50", "setting": "NCI-H522", "result": "55.6 µM (inactive)"},
      {"measurement": "GI50", "setting": "TK-10", "result": "> 100 µM (inactive)"},
      {"measurement": "GI50", "setting": "LOX IMVI", "result": "> 100 µM (inactive)"},
      {"measurement": "GI50", "setting": "NCI-H23", "result": "71.4 µM (inactive)"},
      {"measurement": "GI50", "setting": "MDA-N", "result": "> 100 µM (inactive)"},
      {"measurement": "GI50", "setting": "SW-620", "result": "50.6 µM (inactive)"},
      {"measurement": "GI50", "setting": "UACC-257", "result": "> 100 µM (inactive)"},
      {"measurement": "GI50", "setting": "T47D", "result": "> 100 µM (inactive)"},
      {"measurement": "GI50", "setting": "ACHN", "result": "47.3 µM (inactive)"},
      {"measurement": "GI50", "setting": "NCI-H226", "result": "> 100 µM (inactive)"},
      {"measurement": "GI50", "setting": "OVCAR-4", "result": "> 100 µM (inactive)"},
      {"measurement": "GI50", "setting": "HCT-15", "result": 49, "unit": "µM"},
      {"measurement": "GI50", "setting": "SK-OV-3", "result": "> 100 µM (inactive)"},
      {"measurement": "GI50", "setting": "MDA-MB-435", "result": "> 100 µM (inactive)"},
      {"measurement": "GI50", "setting": "NCI-H460", "result": "58.2 µM (inactive)"},
      {"measurement": "GI50", "setting": "A549", "result": "78.2 µM (inactive)"},
      {"measurement": "GI50", "setting": "SNB-75", "result": "> 100 µM (inactive)"},
      {"measurement": "GI50", "setting": "KM12", "result": "50.9 µM (inactive)"},
      {"measurement": "GI50", "setting": "CAKI-1", "result": "> 100 µM (inactive)"},
      {"measurement": "GI50", "setting": "EKVX", "result": "> 100 µM (inactive)"},
      {"measurement": "GI50", "setting": "DU-145", "result": "> 100 µM (inactive)"},
      {"measurement": "GI50", "setting": "M14", "result": "> 100 µM (inactive)"},
      {"measurement": "GI50", "setting": "SNB-19", "result": "49.2 µM (inactive)"},
      {"measurement": "GI50", "setting": "COLO 205", "result": "49.2 µM (inactive)"},
      {"measurement": "GI50", "setting": "HCT-116", "result": "75 µM (inactive)"},
      {"measurement": "GI50", "setting": "HT-29", "result": "46 µM (inactive)"},
      {"measurement": "GI50", "setting": "MOLT-4", "result": "23.4 µM (inactive)"},
      {"measurement": "GI50", "setting": "MCF7", "result": "34 µM (inactive)"},
      {"measurement": "GI50", "setting": "CCRF-CEM", "result": "33.5 µM (inactive)"},
      {"measurement": "GI50", "setting": "SK-MEL-2", "result": "> 100 µM (inactive)"},
      {"measurement": "GI50", "setting": "K562", "result": "43.2 µM (inactive)"},
      {"measurement": "GI50", "setting": "OVCAR-5", "result": "> 100 µM (inactive)"},
      {"measurement": "GI50", "setting": "786-0", "result": "> 100 µM (inactive)"}
    ]}
  ]
}
